Assay [1] addresses T1, Diacylglycerol O-acyltransferase 1 (Homo sapiens, UniProt O75907).
T1 sequence (O75907 whole entry): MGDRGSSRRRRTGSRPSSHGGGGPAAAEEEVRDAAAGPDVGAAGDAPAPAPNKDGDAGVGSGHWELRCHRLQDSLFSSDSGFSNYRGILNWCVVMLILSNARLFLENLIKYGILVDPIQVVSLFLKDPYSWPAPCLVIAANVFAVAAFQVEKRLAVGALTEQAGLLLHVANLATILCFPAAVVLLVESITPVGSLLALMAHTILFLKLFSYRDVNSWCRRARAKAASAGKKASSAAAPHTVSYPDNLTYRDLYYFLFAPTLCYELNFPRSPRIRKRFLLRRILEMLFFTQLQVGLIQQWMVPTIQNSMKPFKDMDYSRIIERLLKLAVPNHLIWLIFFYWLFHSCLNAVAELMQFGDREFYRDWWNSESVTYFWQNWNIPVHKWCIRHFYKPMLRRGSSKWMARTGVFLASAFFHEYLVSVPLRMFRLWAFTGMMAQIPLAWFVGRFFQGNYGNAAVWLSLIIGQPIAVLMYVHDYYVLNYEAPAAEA
Briefly: Inhibition of human recombinant DGAT1 expressed in Sf9 cells.

In assay [2] the target is T2, Diacylglycerol O-acyltransferase 1 (Mus musculus, UniProt Q9Z2A7).
T2 sequence (Q9Z2A7 whole entry): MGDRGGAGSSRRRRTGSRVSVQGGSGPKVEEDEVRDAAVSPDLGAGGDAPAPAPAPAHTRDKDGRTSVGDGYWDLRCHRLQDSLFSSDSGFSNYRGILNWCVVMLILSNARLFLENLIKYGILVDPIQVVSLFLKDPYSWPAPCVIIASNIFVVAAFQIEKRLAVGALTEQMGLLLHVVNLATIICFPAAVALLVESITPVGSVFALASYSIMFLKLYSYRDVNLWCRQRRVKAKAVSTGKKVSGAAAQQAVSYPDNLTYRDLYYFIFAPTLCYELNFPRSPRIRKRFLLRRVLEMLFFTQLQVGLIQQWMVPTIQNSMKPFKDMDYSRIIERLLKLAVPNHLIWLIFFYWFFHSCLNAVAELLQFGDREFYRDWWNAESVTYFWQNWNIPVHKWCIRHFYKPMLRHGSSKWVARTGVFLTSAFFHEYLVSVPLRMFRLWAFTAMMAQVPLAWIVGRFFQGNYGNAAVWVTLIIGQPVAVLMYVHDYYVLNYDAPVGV
Briefly: Inhibition of mouse recombinant DGAT1 expressed in Sf9 cells.

This note sets out measurements from ChEMBL document CHEMBL1140730, “Validation of diacyl glycerolacyltransferase I as a novel target for the treatment of obesity and dyslipidemia using a potent and selective small molecule inhibitor” (J Med Chem, 2008).

For orientation: IC50 means the concentration that gives 50% inhibition.

For `O=C(Nc1ccccc1)Nc1ccc(-c2ccc(C(=O)[C@@H]3CCC[C@@H]3C(=O)O)cc2)cc1`, the IC50 in assay [1] was determined as 98 nM.
Take `O=C(Nc1ccc(-c2ccc(C(=O)[C@@H]3CCC[C@H]3C(=O)O)cc2)cc1)Nc1cccc(Cl)c1`: the IC50 in assay [2] came to 19 nM.
The same measure, in the same setting: for `N#Cc1ccc(NC(=O)Nc2ccc(-c3ccc(C(=O)[C@@H]4CCC[C@H]4C(=O)O)cc3)cc2)cc1` the value was 603 nM; for `O=C(Nc1ccc(-c2ccc(C(=O)[C@@H]3CCC[C@H]3C(=O)O)cc2)cc1)Nc1ccc2c(c1)OCO2`, 63 nM; for `O=C(Nc1ccc(-c2ccc(C(=O)[C@@H]3CCC[C@H]3C(=O)O)cc2)cc1)Nc1ccc(C(F)(F)F)cc1`, 14 nM.
The same measure, in the same setting: then `O=C(Nc1ccc(-c2ccc(C(=O)[C@@H]3CCC[C@H]3C(=O)O)cc2)cc1)Nc1cccc(F)c1`, with 39 nM.
